The target of assay [1] is T1, Fructose-1,6-bisphosphatase enzyme (FBPase) (Rattus norvegicus, UniProt P19112).
T1 construct: The reaction was started by adding the cytosolic supernatant previously diluted in buffer without substrate; from tissue; host or cells: rat liver, cytosolic supernatant
T1 sequence (P19112 1-363): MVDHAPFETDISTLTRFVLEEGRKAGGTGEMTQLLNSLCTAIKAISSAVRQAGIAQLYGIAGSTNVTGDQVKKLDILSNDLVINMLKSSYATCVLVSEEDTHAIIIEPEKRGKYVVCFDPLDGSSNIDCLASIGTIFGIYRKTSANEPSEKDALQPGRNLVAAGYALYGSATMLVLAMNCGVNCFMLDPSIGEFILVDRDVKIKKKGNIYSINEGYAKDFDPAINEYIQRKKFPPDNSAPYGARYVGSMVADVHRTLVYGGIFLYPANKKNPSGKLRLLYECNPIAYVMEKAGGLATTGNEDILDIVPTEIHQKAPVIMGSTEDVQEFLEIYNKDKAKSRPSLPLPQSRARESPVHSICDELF
Briefly: Fructose-1,6-bisphosphatase (FBPase) enzyme activity inhibition assay. The class given is biochemical. As to conditions: rat liver cytosolic supernatant, 0.1 mM FBP. The protocol: Livers were removed from 18-h fasted healthy rats (3), which were previously anesthetized with 5% isoflurane ([Unit for Laboratory Animal Medicine, 2023]). Then, they were homogenized in buffer (250 mM sucrose, 1 mM EDTA, 5 mM HEPES, pH 7.4), filtered, and subsequently subjected to differential centrifugation as described by [Andrade-Cetto and Cárdenas-Vázquez (2010)]. Both the microsome-enriched supernatant (containing the enzyme complex glucose-6-phosphatase) and the cytosolic supernatant (containing the enzyme fructose-1,6-bisphosphatase) were collected and stored at −40°C until use.
Colorimetric assays were performed to detect the formation of a phosphomolybdate-malachite green complex with the inorganic phosphate released by the enzyme FBPase. […]
The assays were carried out with substrate-enriched buffer (5 µM EDTA, 5 mM MgCl2, 50 mM Tris-HCl, 0.1 mM FBP, pH 7.2) to which the inhibitors were added at different concentrations (AMP, EtOH-WCg, or junceic acid). […] Finally, the absorbance was measured at 630 nm.
(§1) Finally, for in vitro experiments, absorbance values were transformed into activity percentages following the next formula: Enzyme activity %=AS−ASB/AC−ACB×100
(§2) Where A S is the absorbance of the inhibitor sample at a specific concentration, A SB is the blank of the inhibitor sample, A C is the highest absorbance (without inhibitor), and A CB is the blank of the highest absorbance. […]

Assay [2] addresses Protein tyrosine phosphatase 1B (PTP-1B). Nature of the assay: Protein tyrosine phosphatase 1B (PTP-1B) enzyme activity inhibition assay. The class given is biochemical. As to conditions: rat liver supernatant, 10 mM pNPP. The protocol:
One day before the isolation of the enzyme-containing subcellular fraction, lysis buffer was prepared (50 mM HEPES, 0.1 mM EGTA, 0.1 mM EDTA, 120 mM NaCl, 0.5% NP-40, pH 7.5) and enriched with one protease inhibitor cocktail tablet per 10 mL of buffer. The liver from an overnight-fasted healthy rat, previously anesthetized with isoflurane, was removed. The organ was then homogenized in lysis buffer as described by [Li et al. (2010)]. The homogenate was filtered and subsequently centrifuged at 14,000 g for 15 min at 4°C. Supernatants were collected and stored at −40°C until use.
Colorimetric assays were carried out to detect the dephosphorylation of pNPP, which is proportional to the activity of the PTP-1B enzyme. Three independent assays were performed in triplicate following the protocols proposed by [Guo et al. (2015)] and [Song et al. (2017)] with slight modifications. […] Finally, the absorbance was measured at 405 nm.
as §1, §2

Assay [3] concerns STZ-NA-hyperglycemic rats. Nature of the assay: Pyruvate tolerance tests (inhibition of hepatic glucose production). The class given is in vivo, Wistar rats. As to conditions: rats fasted 18 h, pyruvate 2 g/kg i.p.; metformin 500 mg/kg b.w. oral.
Procedure: Treatment administration (vehicle and samples) was performed orally with the help of an esophageal cannula. Blood samples were obtained from the tail vein and glucose measurements were performed in duplicate using Accu-Chek® Active glucometers.
In summary hyperglycemia was induced as described by [Masiello et al. (1998)], rats fasted for 12 h were administered intraperitoneally with 150 mg/kg b. w. of NA and, 15 min later, 65 mg/kg b. w. of STZ was injected intravenously. After 2 weeks, animals with blood glucose values above 180 mg/dL were selected to perform the tests described below.
After basal glucose measurement, animals received their corresponding treatment. Fifteen minutes later, rats were injected intraperitoneally with a pyruvate solution (2 g/kg b. w.). In total, 30 rats were divided into five groups (n = 6 each group): 1. Normoglycemic Control + pyruvate (NP), receiving physiological solution; 2. Hyperglycemic Control + pyruvate (HP), which was administered with physiological solution; 3. […] (HMP); 4. Hyperglycemic Group + pyruvate + EtOH-WCg, administered with 30 mg/kg b. w. (HCgP); and 5. […] (HJaP). After intraperitoneal injection, glucose levels were measured every 30 min for 2 h ([Mata-Torres et al., 2020]).

The structures appear in SMILES notation.

Chain of Protein tyrosine phosphatase 1B (PTP-1B) (P20417 whole entry): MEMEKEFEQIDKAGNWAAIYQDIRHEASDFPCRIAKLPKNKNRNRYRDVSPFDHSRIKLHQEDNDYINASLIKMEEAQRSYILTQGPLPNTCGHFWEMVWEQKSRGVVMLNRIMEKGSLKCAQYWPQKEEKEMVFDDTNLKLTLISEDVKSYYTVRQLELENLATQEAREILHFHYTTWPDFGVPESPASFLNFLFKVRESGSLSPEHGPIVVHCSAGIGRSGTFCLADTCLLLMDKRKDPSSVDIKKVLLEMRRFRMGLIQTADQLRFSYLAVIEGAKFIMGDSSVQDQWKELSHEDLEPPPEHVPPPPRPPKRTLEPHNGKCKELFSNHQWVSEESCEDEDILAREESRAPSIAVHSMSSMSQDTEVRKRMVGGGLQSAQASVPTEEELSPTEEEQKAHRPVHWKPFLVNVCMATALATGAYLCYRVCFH

A word on the IC50: it is the point on the concentration scale where inhibition reaches its midpoint. A higher IC50 goes with weaker potency. In assay [1], `Nc1ncnc2c1ncn2[C@@H]1O[C@H](COP(=O)(O)O)[C@@H](O)[C@H]1O.O` [AMP, adenosine 5′-monophosphate monohydrate] had an IC50 of 95 µM and an Inhibition % of 96%.
With `[Na+].[Na+].[Na+].[O]=[V]([O-])([O-])[O-]` [Na3VO4], in assay [2], the “IC50 ± SEM” value turned out to be 43.2 ± 1.5 mg/L and the Inhibition % was 97%.
Turning to `CN(C)C(=N)N=C(N)N` [metformin], in assay [3], the “effect on the hyperglycemic peak 30 min after pyruvate injection” value is reported as “completely inhibited the hyperglycemic peak”.

Values taken from paper PMC11521914 (Frontiers in Pharmacology, 2024).
